Data set [1] relates to VEGF gene transcription in SH-SY5Y cells. Nature of the data set: Real-time RT-PCR in SH-SY5Y cells, VEGF. In kind it is cell-based, human. How it is done: SH-SY5Y cells were treated with or without B14, and total RNA was subsequently isolated and purified. Reverse transcription was performed using a cDNA synthesis kit. The relative transcription levels of the genes were evaluated through quantitative real-time PCR using the SYBR Green-based method, as described in the Supplementary Date. Details regarding the primer sequences and the raw data can be found in Table S7 and Table S8.
^a -∆∆Ct = -[(Ct value of genes in treated sample - Ct value of genes in control) - (Ct value of β-actin in treated sample - Ct value of β-actin in control)]. ^b F: The relative expression fold.
Experiment 1: SH-SY5Y cells were treated with different concentration of B14. The Ct values of BAX, VEGF, CMYC and BCL-2 were obtained.
Total RNA was extracted from cells and mice liver tissue using RNAiso Plus (Takara, 9109, Japan). Following sample homogenization, chloroform was added, and the solution was allowed to have phase separation into an upper aqueous layer (containing RNA), an interphase, and a lower organic layer (containing DNA and proteins). RNA was precipitated from the aqueous phase using isopropanol, while DNA was precipitated from the aqueous-organic interphase using ethanol. Complementary DNA (cDNA) was synthesized using the One-Step RT-PCR Kit (Takara, Cat#639503, Japan).
Quantitative real-time polymerase chain reaction (qRT-PCR) was performed using the 2× RealStar SYBR Mixture (GenStar, Cat# A301-10, Guangzhou, China) on a LightCycler 480 II real-time PCR system (Roche, USA). Data were analyzed using the 2^−ΔΔCt method. Actin served as the internal control, and relative mRNA levels were normalized accordingly.
On the technique in general: In qPCR the cycle at which signal appears reflects the starting amount.

Data set [2] relates to APP/PS1 transgenic mice. Nature of the data set: Novel object recognition (NOR). Type of data set: in vivo. To be noted: B14 10, 20, 40 mg/kg i.p. every other day. The text has this:
Five months old male APP/PS1 mice, weighing 25–33 g, were purchased from Guangdong Medical Laboratory Animal Center and housed in the Laboratory Animal Center of Sun Yat-sen University (Guangzhou, China) for experimentation. All procedures were approved by the Animal Care and Use Committee of Sun Yat-sen University and complied with legal requirements and national guidelines for the care and maintenance of laboratory animals (Approval No. SYSU-IACUC-2024-002032). The mice were housed in a specific pathogen-free environment with a controlled temperature of 22 ± 1 °C and a 12-h dark/light cycle. The mice were fed with a standard diet, and 30 mice were randomly divided into 6 groups (N = 5). Compound B14 was dissolved in saline and administered at doses of 10, 20, or 40 mg/kg. […]
The spatial memory and learning abilities of the mice were assessed using Morris water maze (MWM), novel object recognition (NOR) and nesting experiments (NBT). The anxiety and depressive behaviors were evaluated through the open field test (OFT) and elevated plus maze (EPM). […]
The novel object recognition (NOR) test evaluates mice's memory for familiar objects and their exploration of novel objects. […] The time spent exploring each object was recorded. The mice's learning and memory abilities were assessed by calculating the preference index (PI) using the formula PI = tB / (tA1 + tB).

Data set [3] deals with bio-BCL-2 (BCL-2 IM) (DNA, i motif) CAGCCCCGCTCCCGCCCCCTTCCTCCCGCGCCCGCCCCT
Nature of the data set: SPR. Particulars: K+ 100 mM; 20 mM MES, pH 5.5, 25 °C.

Data set [4] deals with APP/PS1 transgenic mice. Nature of the data set: Histopathological examination (HE) of vital organs. To be noted: mouse, in vivo. The text has this:
Five months old male APP/PS1 mice, weighing 25–33 g, were purchased from Guangdong Medical Laboratory Animal Center and housed in the Laboratory Animal Center of Sun Yat-sen University (Guangzhou, China) for experimentation. All procedures were approved by the Animal Care and Use Committee of Sun Yat-sen University and complied with legal requirements and national guidelines for the care and maintenance of laboratory animals (Approval No. SYSU-IACUC-2024-002032). The mice were housed in a specific pathogen-free environment with a controlled temperature of 22 ± 1 °C and a 12-h dark/light cycle. The mice were fed with a standard diet, and 30 mice were randomly divided into 6 groups (N = 5). Compound B14 was dissolved in saline and administered at doses of 10, 20, or 40 mg/kg. APP/PS1 male mice were grown until 6 months of age, and then injected intraperitoneally with compound B14 every other day for 60 days. Behavioral experiments were then conducted, and tissue specimens were collected for biochemical analysis.
The mice were sacrificed, with their brains and organs isolated and embedded in paraffin. The brains and organs were then sectioned into 6 μm thin slices. These slices were subjected to H&E or Nissl staining (Servicebio, Guangzhou, China). The stained sections were subsequently imaged and analyzed by using microscopy.
Figure S11. […]

Data set [5] relates to BCL-2 i-motif. Nature of the data set: ESI-MS with BCL-2 i-motif. Type of data set: binding. Particulars: pH 6.5. The procedure: The oligomer for BCL-2 promoter […] at concentration of 5 μM was annealed in 1 × BPES buffer with or without 20 μM B14 at 95 °C for 5 min, followed by cooling to room temperature. Mass spectrometry signals were collected by using ESI-MS (Thermo, LCQ DECA Plus XP) and analyzed by using pro-mass.

For data set [6], the system named is RB (DNA, i motif) GCCGCCCAAAACCCCCCG
Nature of the data set: thiazole orange displacement. To be noted: K+ 100 mM KCl plus potassium phosphate; BPES buffer, pH 5.5, 25 °C; 1 μM DNA, 1 μM TO; displacement only 1 %.

Data set [7] deals with BAX, Cleaved Caspase 3, Cleaved Caspase 9, Cyto-C, Apaf-1 in SH-SY5Y cells. Nature of the data set: Western blot of apoptosis related proteins in Aβ1-42 induced cell model. In kind it is cell-based. To be noted: 25 μM Aβ1-42 induced model. The procedure:
Protein samples (25–40 μg) were separated using 10 % SDS-PAGE and subsequently transferred onto PVDF membranes (0.22 μm, Servicebio, Guangzhou, China) via electro transfer. Following blocking with TBST solution (Servicebio, Guangzhou, China) containing 5 % BSA (Solarbio, Beijing, China) for approximately 60 min at room temperature, the membrane was exposed to various primary antibodies overnight at 4 °C on a rotating shaker. Then, the membranes were incubated with HRP-conjugated secondary antibody (Affinity, Changzhou, China) for 2 h. Protein bands were then detected using an ECL kit. The signal intensity of each target protein was quantified using Image J 1.8.0 software (Bio-Rad Laboratories, California, USA).
Primary antibodies for Western blot analysis include BCL-2 (affinity biosciences OH, Cat# AF6139, USA), BAX (affinity biosciences OH, Cat# AF0120, USA), VEGF (affinity biosciences OH, Cat# AF5131, USA), C-MYC (affinity biosciences OH, Cat# AF0358, USA), Caspase9 (affinity biosciences OH, Cat# AF6348, USA), cleaved-Caspase9 (affinity biosciences OH, Cat# AF5240, USA), Caspase3 (affinity biosciences OH, Cat# AF6311, USA), cleaved-Caspase3 (affinity biosciences OH, Cat# AF7022, USA), and Cyto-C (affinity biosciences OH, Cat# AF6139, USA).
(In general: In western blotting, separated proteins are transferred to a membrane and probed.)

The structures appear in SMILES notation.

A word on the KD: it is the concentration at which binding is half-saturated. Lower therefore signals tighter binding.

`O=C(CCN1CCOCC1)Nc1ccc2c(c1)c(=O)c1cc(NC(=O)CCN3CCOCC3)ccc1n2-c1ccc2occc2c1` [Compound B14]: the “-∆∆Ct, VEGF” value in data set [1] (6.25 μM B14) was -0.01; in data set [1] (12.5 μM B14), -0.01; in data set [1] (25 μM B14) it was -0.03. Besides, the “F = 2^-∆∆Ct (relative expression fold), VEGF” value stood at 1.00 in data set [1] (6.25 μM B14), 1.00 in data set [1] (12.5 μM B14) and 1.02 in data set [1] (25 μM B14). The “times to touch new objects and index of preference (NOR)” value in data set [2] is reported as “significantly increased”. Also, the dissociation constant KD in data set [3] is 2.13 µM. Further, the “histopathology of heart, liver, spleen, lungs, kidney” value in data set [4] is reported as “no significant detrimental effect for these organs”. Also, the “adduct peak in ESI-MS” value in data set [5] was “could bind tightly to BCL-2 i-motif”. Moreover, the binding entry in data set [6] is recorded as “no”. The “levels of pro-apoptotic proteins (Western blot)” value in data set [7] is given as “decreased levels of pro-apoptotic proteins”.

The values above are taken from publication PMC11982498 (Redox Biology, 2025).
